According to US10899753B2, “Inhibiting agents for Bruton's tyrosine kinase” (BIOGEN MA INC., priority 2018, dated 2021):

Assays:
BTK [1] = target: T1, BTK (Homo sapiens (Human), UniProt Q06187); assay: In Vitro PD Assay in Human Whole Blood (pBTK assay); format: cell-based; conditions: human heparinized whole blood, 37° C. for 30 min, total BTK capture and phosphotyrosine detection (ECL)
Outline: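 Heparinized human venous whole blood spiked with serially diluted compound (0.1% DMSO final) and incubated 30 min at 37° C. Lysed with protease/phosphatase inhibitors (high control +PPi, low control −PPi lacking phosphatase inhibitors); total BTK captured and phosphotyrosine detected.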

BTK [2] = target: T1, BTK; assay: In Vitro BTK Kinase Assay: BTK-POLYGAT-LS ASSAY; format: biochemical; conditions: fluorescein-labeled polyGAT peptide 100 nM, BTK enzyme 0.25 nM, 30 minutes, TRF
Outline: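 ATP […] and polyGAT peptide (100 nM), final concentrations, in Tris-HCl pH 7.5 kinase buffer with MgCl2, DTT, Triton X-100 and casein. Reaction run 30 min, stopped with EDTA, then 45 min at room temperature.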

T1 sequence (Q06187 whole entry): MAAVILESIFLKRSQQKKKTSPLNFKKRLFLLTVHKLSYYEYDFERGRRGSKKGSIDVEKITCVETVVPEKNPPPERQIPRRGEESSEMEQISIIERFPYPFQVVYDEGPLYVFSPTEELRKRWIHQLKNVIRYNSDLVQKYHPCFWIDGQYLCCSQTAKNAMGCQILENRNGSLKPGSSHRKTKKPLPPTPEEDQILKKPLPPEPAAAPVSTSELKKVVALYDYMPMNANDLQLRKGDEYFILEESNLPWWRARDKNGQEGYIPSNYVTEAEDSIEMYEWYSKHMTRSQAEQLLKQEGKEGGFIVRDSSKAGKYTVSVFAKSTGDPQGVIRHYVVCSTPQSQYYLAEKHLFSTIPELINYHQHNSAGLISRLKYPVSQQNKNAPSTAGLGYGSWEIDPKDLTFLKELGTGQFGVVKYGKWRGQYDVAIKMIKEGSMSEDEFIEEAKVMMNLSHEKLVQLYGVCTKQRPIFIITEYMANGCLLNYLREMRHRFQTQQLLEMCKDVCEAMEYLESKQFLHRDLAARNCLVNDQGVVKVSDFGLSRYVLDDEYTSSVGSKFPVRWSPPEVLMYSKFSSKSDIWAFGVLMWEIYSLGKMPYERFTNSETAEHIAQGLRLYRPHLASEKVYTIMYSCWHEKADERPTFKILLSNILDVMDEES

Structure (SMILES)	IC50 (BTK [1]) [nM]	IC50 (BTK [2]) [nM]
Cc1cc(-c2ncnc(Nc3cnn(C)c3)n2)c(F)cc1CNC(=O)c1noc(C2(CF)CC2)n1 [Compound 51, N-(5-fluoro-2-methyl-4-(4-((1-methyl-1H-pyrazol-4-yl)amino)-1,3,5-triazin-2-yl)benzyl)-5-(1-(fluoromethyl)cyclopropyl)-1,2,4-oxadiazole-3-carboxamide]	100 to 500	< 1
Cc1c(-c2ncnc(Nc3ccn(C)n3)n2)ccc([C@@H](C)NC(=O)c2noc(C(C)(C)C)n2)c1Cl [Compound 79, (R)-5-(tert-butyl)-N-(1-(2-chloro-3-methyl-4-(4-((1-methyl-1H-pyrazol-3-yl)amino)-1,3,5-triazin-2-yl)phenyl)ethyl)-1,2,4-oxadiazole-3-carboxamide]	500 to 10000	1 to 10
Cc1c(CNC(=O)c2noc(C3(C)CC3)n2)ccc(-c2ncnc(Nc3cnn(C)c3)n2)c1F [Compound 32, N-(3-fluoro-2-methyl-4-(4-((1-methyl-1H-pyrazol-4-yl)amino)-1,3,5-triazin-2-yl)benzyl)-5-(1-methylcyclopropyl)-1,2,4-oxadiazole-3-carboxamide]	< 100	< 1
Cn1ccc(Nc2ncnc(-c3ccc(CNC(=O)c4nc(C(C)(C)C)no4)c(CC(F)F)c3)n2)n1 [Compound 68, 3-(tert-butyl)-N-(2-(2,2-difluoroethyl)-4-(4-((1-methyl-1H-pyrazol-3-yl)amino)-1,3,5-triazin-2-yl)benzyl)-1,2,4-oxadiazole-5-carboxamide]	500 to 10000	1 to 10
Cn1ccc(Nc2ncnc(-c3ccc(CNC(=O)c4noc(C(C)(C)C)n4)c(Cl)c3)n2)n1 [Compound 5, 5-(tert-butyl)-N-(2-chloro-4-(4-((1-methyl-1H-pyrazol-3-yl)amino)-1,3,5-triazin-2-yl)benzyl)-1,2,4-oxadiazole-3-carboxamide]	500 to 10000	1 to 10
Cc1cc(-c2ncnc(Nc3cnn(C)c3)n2)ccc1CNC(=O)c1coc(C(C)(C)C)n1 [Compound 107, 2-(tert-butyl)-N-(2-methyl-4-(4-((1-methyl-1H-pyrazol-4-yl)amino)-1,3,5-triazin-2-yl)benzyl)oxazole-4-carboxamide]	500 to 10000	< 1
Cc1c(-c2ncnc(Nc3cnn(C)c3)n2)ccc([C@@H](C)NC(=O)c2nc(C(C)(C)C)no2)c1Cl [Compound 78, (R)-3-(tert-butyl)-N-(1-(2-chloro-3-methyl-4-(4-((1-methyl-1H-pyrazol-4-yl)amino)-1,3,5-triazin-2-yl)phenyl)ethyl)-1,2,4-oxadiazole-5-carboxamide]	100 to 500	1 to 10
Cc1cc(-c2ncnc(Nc3cnn(C)c3)n2)ccc1CNC(=O)c1noc(C(C)(C)C)n1 [Compound 11, 5-(tert-butyl)-N-(2-methyl-4-(4-((1-methyl-1H-pyrazol-4-yl)amino)-1,3,5-triazin-2-yl)benzyl)-1,2,4-oxadiazole-3-carboxamide]	100 to 500	< 1
Cc1c(CNC(=O)c2nn(C(C)(C)C)cc2F)ccc(-c2ncnc(Nc3cnn(C)c3)n2)c1F [Compound 27, 1-(tert-butyl)-4-fluoro-N-(3-fluoro-2-methyl-4-(4-((1-methyl-1H-pyrazol-4-yl)amino)-1,3,5-triazin-2-yl)benzyl)-1H-pyrazole-3-carboxamide]	100 to 500	< 1
Cn1cc(Nc2ncnc(-c3ccc(CNC(=O)c4noc(C(C)(C)C)n4)c(Cl)c3F)n2)cn1 [Compound 28, 5-(tert-butyl)-N-(2-chloro-3-fluoro-4-(4-((1-methyl-1H-pyrazol-4-yl)amino)-1,3,5-triazin-2-yl)benzyl)-1,2,4-oxadiazole-3-carboxamide]	< 100	< 1
Cc1c([C@@H](C)NC(=O)c2cc(C(C)(C)C)no2)ccc(-c2ncnc(Nc3cnn(C)c3)n2)c1F [Compound 75, (R)-3-(tert-butyl)-N-(1-(3-fluoro-2-methyl-4-(4-((1-methyl-1H-pyrazol-4-yl)amino)-1,3,5-triazin-2-yl)phenyl)ethyl)isoxazole-5-carboxamide]	100 to 500	< 1
Cc1cc(-c2ncnc(Nc3cnn(C)c3)n2)c(F)cc1CNC(=O)c1cnn(C(C)(C)C)c1 [Compound 61, 1-(tert-butyl)-N-(5-fluoro-2-methyl-4-(4-((1-methyl-1H-pyrazol-4-yl)amino)-1,3,5-triazin-2-yl)benzyl)-1H-pyrazole-4-carboxamide]	100 to 500	< 1
Cn1ccc(Nc2ncnc(-c3ccc(CNC(=O)c4nc(C(C)(C)C)no4)c(C4CC4)c3F)n2)n1 [Compound 55, 3-(tert-butyl)-N-(2-cyclopropyl-3-fluoro-4-(4-((1-methyl-1H-pyrazol-3-yl)amino)-1,3,5-triazin-2-yl)benzyl)-1,2,4-oxadiazole-5-carboxamide]	500 to 10000	< 1
Cn1ccc(Nc2ncnc(-c3ccc(CNC(=O)c4noc(C(C)(C)C)n4)c(Cl)c3F)n2)n1 [Compound 21, 5-(tert-butyl)-N-(2-chloro-3-fluoro-4-(4-((1-methyl-1H-pyrazol-3-yl)amino)-1,3,5-triazin-2-yl)benzyl)-1,2,4-oxadiazole-3-carboxamide]	100 to 500	< 1
Cc1c(CNC(=O)c2nc(C3(CF)CC3)no2)ccc(-c2ncnc(Nc3cnn(C)c3)n2)c1F [Compound 47, N-(3-fluoro-2-methyl-4-(4-((1-methyl-1H-pyrazol-4-yl)amino)-1,3,5-triazin-2-yl)benzyl)-3-(1-(fluoromethyl)cyclopropyl)-1,2,4-oxadiazole-5-carboxamide]	< 100	< 1
